Data reported in patent US20200129476A1, “PARP Inhibitor in Combination with a Glucocorticoid and/or Ascorbic Acid and/or a Protein Growth Factor for the Treatment of Impaired Wound Healing” (AKRIBES BIOMEDICAL GMBH, priority 2017, published 2020).
“Also recorded” adds a separate entry of the source.

Experiments:
[1] = system: primary human dermal fibroblasts (HDF); experiment: Primary human dermal fibroblast (HDF) proliferation assay (2D), with or without wound exudate; assay type: cell-based; conditions: for HDF proliferation, PARP inhibitor alone: talazoparib 1 μM
Procedure: Primary human dermal fibroblasts (HDF) were purchased from CELLnTEC, Bern. They were routinely grown in Dulbecco's modified Eagle's medium (DMEM) containing 10% FCS, 2 mM glutamine, and 100 U/ml penicillin/100 μg/ml streptomycin. Media, antibiotics, and glutamine were bought from Lonza. The cells were used at passage 5-15. Cells were trypsinized and seeded at 5000 cells/well in 200 μl into the inner wells of 96-well plates. The outer wells were loaded with sterile water. The cells were allowed to adhere overnight and then incubated for 72 hours at 37° C. under the following conditions: graded compound concentrations or 20 ng/ml PDGF-BB (Tonbo Biosciences) in the absence or presence of different dilutions of sterile-filtered WE in medium. For control samples, 200p1 medium was added instead of specific stimuli. Alternatively, the cells were seeded into 384-well plates at 2500 cells/well directly together with test compounds or growth factors and WE or medium in a total volume of […].
At the end of the 72-hour incubation period, supernatants were removed for the determination of IL-1ß, and the cells were fixed with 4% paraformaldehyde (Morphisto) for 15 minutes at room temperature and washed 3 times with PBS. A control plate was fixed after the overnight adherence of the cells (day 1) to determine the starting cell number.
Total cellular protein was determined as a measure of cell number by staining the fixed cells with sulforhodamine B (SRB, Sigma). A 0.4% SRB solution in 1% acetic acid was added to the wells for 30 minutes. The wells were then washed with 1 acetic acid until the wash solution remained colorless. After drying, the dye was eluted with 10 mM Tris.HCl, pH8.5, and absorbance was measured either at 550 or 492 nm for lower and higher cell densities, respectively. The average absorbance of the sample representing the day 1 starting cell number (for 96-well plates) was subtracted from the absorbance values of the WE-treated cells.
All experiments were carried out in triplicate for each sample and concentration, and means±standard deviation (SD) were used for the evaluation of the experiment. Results are expressed as percentage of control values for unstimulated cells.
Low molecular weight compounds (see list in Table 1) were dissolved in DMSO (Bioreagent for cell culture, Sigma) at 10 mM or 100 mM and diluted at least 1:1000 in medium for cellular assays (final DMSO concentration ≤0.1%).
Cells were incubated with compounds for 72 hours in proliferation assays and up to 8 days for FDM assay (refreshed after 4 days). When compounds were tested for their effect on WE stimulation, the incubation of cells with compounds was started and ended simultaneously with WE-incubation.

macrophages = experiment: Fibroblast-macrophage coculture with wound exudate: live cells in FACS CD45-gate; assay type: cell-based, human; conditions: WE #78
Procedure: CD14^+ monocytes, isolated from PBMC of healthy donors by magnetic bead separation were incubated either alone or in the presence of primary human dermal fibroblasts (CelINTec) or fibroblast-derived matrices (FDM). FDM had been generated from primary human dermal fibroblasts by a 3-week incubation with the growth supplements vitamin C or insulin and EGF (vitamin C: 2-phospho-L-ascorbic acid trisodium salt, 100 μg/ml; human EGF, 5 ng/ml; human insulin, 5 μg/ml). Alternatively, fibroblast monolayer cultures can be used as well. […]
Supernatants were harvested and frozen for cytokine determination by ELISA, and cells were harvested and subjected to FACS analysis, gating on the monocyte population. Geometric means or mean fluorescence intensities (MFI) were used to quantify surface marker expression.
Cells were harvested and resuspended in FACS buffer (PBS containing 2% FCS). […] Co-staining with CD45 eFluor (#506 69-0459-42) was used to distinguish macrophages from primary human fibroblasts when analyzed from co-cultures. After washing cells with FACS buffer, they were fixed with 1% paraformaldehyde in PBS and stored at 4° C. in the dark until data were acquired on a Gallios flow cytometer from Beckman Coulter and analyzed with the Kaluza analysis software 1.3.

IL-1α = experiment: Fibroblast-macrophage coculture with wound exudate: IL-1α; assay type: cell-based, human; conditions: WE #78; veliparib 10 μM, talazoparib 0.1 μM
Procedure: CD14^+ monocytes, isolated from PBMC of healthy donors by magnetic bead separation were incubated either alone or in the presence of primary human dermal fibroblasts (CelINTec) or fibroblast-derived matrices (FDM). FDM had been generated from primary human dermal fibroblasts by a 3-week incubation with the growth supplements vitamin C or insulin and EGF (vitamin C: 2-phospho-L-ascorbic acid trisodium salt, 100 μg/ml; human EGF, 5 ng/ml; human insulin, 5 μg/ml). Alternatively, fibroblast monolayer cultures can be used as well. After 4 days to a week to allow for macrophage differentiation in the presence or absence of M-CSF (25 ng/ml), the cultures were stimulated overnight with graded concentrations of test compounds in the absence or presence of various dilutions of sterile-filtered WE. IFN-g (50 ng/ml), LPS (100 ng/ml) and IL-4 (25 ng/ml) or combinations thereof served as controls for M1 and M2 macrophage induction. For negative control samples, medium was added instead of specific stimuli. WE were added to the culture medium for overnight stimulation at dilutions ranging from 1:25 to 1:100.
Supernatants were harvested and frozen for cytokine determination by ELISA, and cells were harvested and subjected to FACS analysis, gating on the monocyte population. Geometric means or mean fluorescence intensities (MFI) were used to quantify surface marker expression. […]

C[C@]1(c2nc3c(C(N)=O)cccc3[nH]2)CCCN1 [veliparib, 2-((2R)-2-methylpyrrolidin-2-yl)-1H-benzimidazole-4-carboxamide]
cell proliferation under wound exudate-induced inhibition ([1]; FIG. 22, WE #43 and #78 used with veliparib): enhanced cell proliferation | HDF proliferation, PARP inhibitor plus PDGF ([1]; PARP inhibitor dose series + PDGF 20 ng/ml, WE #78 (FIG. 18)): even further enhanced by the addition of PDGF | effect on fibroblast proliferation compared across patients ([1]; WE from patients #49, #43, #78, #27): most prominent in the two patients with diabetes | reproducibility of effect on fibroblast proliferation ([1]; WE samples #77 and #78 of one patient (day 1 and day 8)): reproducible in different samples of the same patient | fibroblast (HDF) proliferation ([1]; presence of WE #43): strongly beneficial effects | fibroblast (HDF) proliferation ([1]; presence of WE #78 (diabetic patient)): completely reversed inhibition of wound exudate (WE)-induced fibroblast proliferation; also recorded: dose-dependent increase of HDF proliferation | fibroblast (HDF) proliferation ([1]; presence of WE #78 (diabetic patient), listed as Veliparib): completely reversed inhibition of wound exudate (WE)-induced fibroblast proliferation; also recorded: strongly beneficial effects | fibroblast (HDF) proliferation ([1]; presence of wound exudate (WE) of patients, several or unspecified WE): could be confirmed in a number of further wound exudate samples from other patients | HDF proliferation, PARP inhibitor plus PDGF ([1]; veliparib 10 μM, talazoparib 1 μM + PDGF 20 ng/ml, WE #78 (FIG. 17B)): additively or synergistically enhanced by PDGF | HDF proliferation, PARP inhibitor alone ([1]; veliparib 10 μM, WE #78 (FIG. 17B)): induce proliferation | HDF proliferation, PARP inhibitor alone ([1]; veliparib 10 μM, absence of WE (FIG. 17A)): no or an inhibitory effect on fibroblasts on their own | HDF proliferation, PARP inhibitor alone ([1]; veliparib 10 μM, absence of WE (FIG. 17A), listed as Veliparib): no or even an inhibitory effect on fibroblasts on their own | percentage of live cells in the FACS CD45-gate, veliparib with dexamethasone (macrophages; veliparib 10 μM + dexamethasone 10 nM): further increased | percentage of live cells in the FACS CD45-gate (macrophages; veliparib 10 μM or dexamethasone 10 nM alone): increased | IL-1α induced by wound exudate (IL-1α): reduced
